Structures are written as SMILES.

One assay addresses T1, ABHD12 (Mus musculus, UniProt Q99LR1).
T1 construct: from tissue; host or cells: brain membrane proteome
T1 sequence (Q99LR1 1-398): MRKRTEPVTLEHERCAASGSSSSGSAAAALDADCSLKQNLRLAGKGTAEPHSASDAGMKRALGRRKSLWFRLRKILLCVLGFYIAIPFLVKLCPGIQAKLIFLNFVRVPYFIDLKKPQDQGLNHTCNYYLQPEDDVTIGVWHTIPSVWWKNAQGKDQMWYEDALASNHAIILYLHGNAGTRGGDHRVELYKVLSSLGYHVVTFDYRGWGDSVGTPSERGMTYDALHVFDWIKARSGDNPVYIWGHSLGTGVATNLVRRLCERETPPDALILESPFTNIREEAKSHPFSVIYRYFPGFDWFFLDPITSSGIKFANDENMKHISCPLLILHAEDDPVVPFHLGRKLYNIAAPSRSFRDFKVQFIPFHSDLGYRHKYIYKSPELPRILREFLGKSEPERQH
In words: Gel-based competitive ABPP, JJH350 probe vs brain membrane proteome. Type of assay: biochemical. The following applies: 10 μM compound, read-out: % Inhibition @ 10 μM (ABPP gel_JJH350 probe vs brain mem). On the procedure:
Gel-Based Competitive ABPP for In Vitro Inhibitor Treatment of Proteomes:
Gel-based ABPP assays were performed as previously reported (Bachovchin, D. A. et al. Superfamily-wide portrait of serine hydrolase inhibition achieved by library-versus-library screening. Proc. Natl. Acad. Sci. U. S. A. 2010, 107, 20941-20946). Cell or tissue proteomes (50 μL, 1 mg/mL) were treated with either FP-Rh (1 μM final concentration) or JJH350 (2 μM final concentration) for 45 min at 37° C. For FP-Rh labeled samples, the reactions were quenched by adding 20 μL of 4× SDS-PAGE loading buffer. The 30 μL of the quenched samples were loaded on gel for analysis. For (S)-1,3-dioxo-7-(4-phenoxybenzoyl)hexahydroimidazo[1,5-a]pyrazin-2(3H)-yl 4-(4-(prop-2-yn-1-yloxy)phenyl)piperazine-1-carboxylate (JJH350)-labeled samples, copper-catalyzed azide-alkyne cycloaddition (CuAAC) was used for visualizing the labeled proteins following the reported protocol. Briefly, rhodamine-PEG3-N3 (1 μL/reaction, 1.25 mM in DMSO), CuSO4 (1 μL/reaction, 50 mM in H2O), TBTA (3 μL/reaction, 1.7 mM in DMSO/t-BuOH [1:4, v/v]) and tris(2-carboxyethyi)phosphine (TCEP) (1 μL/reaction, 50 mM in H2O, freshly prepared) were premixed. 6 μL of this click reagent mixture was immediately added to each JJH350-labeled samples (50 μL, 1 mg/mL) and incubated for 1 h at room temperature. The reactions were quenched by adding 20 μL of 4× SDS-PAGE loading buffer. The 40 μL of the quenched samples were loaded on a gel for analysis.
After separation by SDS-PAGE (10% acrylamide), samples were visualized by in-gel fluorescence scanning using the ChemiDoc MP system (Bio-Rad). Band intensities were quantified using the Image Lab (5.2.1) software (Bio-Rad).
Consider `FC(F)(F)c1cccc(Oc2ccnc(N3CCC(NC(=S)Nc4cccnc4)CC3)c2)c1` [Example 52, 1-(Pyridin-3-yl)-3-(1-(4-(3-(trifluoromethyl)phenoxy)pyridin-2-yl)piperidin-4-yl)thiourea], for which the inhibition (in general, how much of the control response was suppressed) at 10 µM is at least 75%.

On to `Fc1ccc(OC(F)(F)F)cc1Oc1ccnc(N2CCC(NC(=S)Nc3cccnc3)CC2)c1` [Example 58, 1-(1-(4-(2-Fluoro-5-(trifluoromethoxy)phenoxy)pyridin-2-yl)piperidin-4-yl)-3-(pyridin-3-yl)thiourea], for which the inhibition at 10 µM was at least 75%. Turning to `Fc1cc(Cl)ccc1Oc1ccnc(N2CCC(NC(=S)Nc3cccnc3)CC2)c1` [Example 43, 1-(1-(4-(4-Chloro-2-fluorophenoxy)pyridin-2-yl)piperidin-4-yl)-3-(pyridin-3-yl)thiourea], the inhibition at 10 µM is at least 75%. The same measure, in the same setting: to `FC(F)(F)c1ccccc1-c1ccnc(N2CCC(NC(=S)Nc3cccnc3)CC2)c1` [Example 24, 1-(pyridin-3-yl)-3-(1-(4-(2-(trifluoromethyl)phenyl)pyridin-2-yl)piperidin-4-yl)thiourea] belongs 50 to 75%; to `S=C(Nc1cccnc1)NC1CCN(c2cc(-c3ccccc3)ccn2)CC1` [Example 45, 1-(1-(4-Phenylpyridin-2-yl)piperidin-4-yl)-3-(pyridin-3-yl)thiourea], 25 to 50%; to `COc1ccnc(N2CCC(NC(=S)Nc3cccnc3)CC2)c1` [Example 44, 1-(1-(4-Methoxypyridin-2-yl)piperidin-4-yl)-3-(pyridin-3-yl)thiourea], 50 to 75%.

As to `FC(F)(F)Oc1cccc(Oc2ccnc(N3CCC(NC(=S)Nc4cccnc4)CC3)c2)c1` [Example 49, 1-(Pyridin-3-yl)-3-(1-(4-(3-(trifluoromethoxy)phenoxy)pyridin-2-yl)piperidin-4-yl)thiourea], the inhibition at 10 µM was at least 75%. Take `FC(F)(F)c1cnc(NCCCCCNC(=S)Nc2cccnc2)c(Cl)c1` [Example 81, 1-(5-((3-Chloro-5-(trifluoromethyl)pyridin-2-yl)amino)pentyl)-3-(pyridin-3-yl)thiourea]: the inhibition at 10 µM is at least 75%. For `FC(F)(F)Oc1cccc(-c2ccnc(N3CCC(NC(=S)Nc4cccnc4)CC3)c2)c1` [Example 23, 1-(Pyridin-3-yl)-3-(1-(4-(3-(trifluoromethoxy)phenyl)pyridin-2-yl)piperidin-4-yl)thiourea], the inhibition at 10 µM is at least 75%. In the case of `FC(F)(F)Oc1ccc(Oc2cc(N3CCC(NC(=S)Nc4cccnc4)CC3)nc(C(F)(F)F)c2)cc1` [Example 60, 1-(Pyridin-3-yl)-3-(1-(4-(4-(trifluoromethoxy)phenoxy)-6-(trifluoromethyl)pyridin-2-yl)piperidin-4-yl)thiourea], the inhibition at 10 µM is 0 to 25%. Same read-out and setting: the value for `S=C(Nc1cccnc1)NC1CCN(c2ccc(Cl)nc2)CC1` [Example 19, 1-(1-(6-Chloropyridin-3-yl)piperidin-4-yl)-3-(pyridin-3-yl)thiourea] was 0 to 25%; that for `FC(F)(F)Oc1ccc(COc2ccnc(N3CCC(NC(=S)Nc4cccnc4)CC3)c2)cc1` [Example 39, 1-(Pyridin-3-yl)-3-(1-(4-((4-(trifluoromethoxy)benzyl)oxy)pyridin-2-yl)piperidin-4-yl)thiourea] was at least 75%; that for `CC(=O)c1ccnc(N2CCC(NC(=S)Nc3cccnc3)CC2)c1` [Example 76, 1-(1-(4-Acetylpyridin-2-yl)piperidin-4-yl)-3-(pyridin-3-yl)thiourea] was 25 to 50%. Consider `Fc1cc(C(F)(F)F)cnc1N1CCC(NC(=S)Nc2cccnc2)CC1` [Example 21, 1-(1-(3-Fluoro-5-(trifluoromethyl)pyridin-2-yl)piperidin-4-yl)-3-(pyridin-3-yl)thiourea], for which the inhibition at 10 µM was at least 75%. On the same count and under the same terms, the value for `Fc1cc(Oc2ccnc(N3CCC(NC(=S)Nc4cccnc4)CC3)c2)ccc1OC(F)(F)F` [Example 56, 1-(1-(4-(3-Fluoro-4-(trifluoromethoxy)phenoxy)pyridin-2-yl)piperidin-4-yl)-3-(pyridin-3-yl)thiourea] was at least 75%; that for `COc1ccc(-c2ccnc(N3CCC(NC(=S)Nc4cccnc4)CC3)c2)cc1` [Example 46, 1-(1-(4-(4-Methoxyphenyl)pyridin-2-yl)piperidin-4-yl)-3-(pyridin-3-yl)thiourea] was 0 to 25%; that for `FC(F)(F)Oc1ccc(N2CCC(NC(=S)Nc3cccnc3)CC2)nc1` [Example 13, 1-(Pyridin-3-yl)-3-(1-(5-(trifluoromethoxy)pyridin-2-yl)piperidin-4-yl)thiourea] was at least 75%. For `Fc1ccc(COc2ccnc(N3CCC(NC(=S)Nc4cccnc4)CC3)c2)cc1` [Example 38, 1-(1-(4-((4-Fluorobenzyl)oxy)pyridin-2-yl)piperidin-4-yl)-3-(pyridin-3-yl)thiourea], the inhibition at 10 µM was at least 75%. On the same count and under the same terms, the value for `FC(F)(F)c1cnc(NCCCCNC(=S)Nc2cccnc2)c(Cl)c1` [Example 83, 1-(4-((3-Chloro-5-(trifluoromethyl)pyridin-2-yl)amino)butyl)-3-(pyridin-3-yl)thiourea] was 25 to 50%. `Fc1ccc(-c2ccnc(N3CCC(NC(=S)Nc4cccnc4)CC3)c2)cc1` [Example 47, 1-(1-(4-(4-Fluorophenyl)pyridin-2-yl)piperidin-4-yl)-3-(pyridin-3-yl)thiourea]: the inhibition at 10 µM was at least 75%. `Cc1cnc(N2CCC(NC(=S)Nc3cccnc3)CC2)c(Cl)c1` [Example 8, 1-(1-(3-Chloro-5-methylpyridin-2-yl)piperidin-4-yl)-3-(pyridin-3-yl)thiourea]: the inhibition at 10 µM was at least 75%.

Staying with this assay, now noted: at 2 uM compound.
For `C#Cc1cnc(N2CCC(NC(=S)Nc3cccnc3)CC2)c(Cl)c1` [Example 20, 1-(1-(3-Chloro-5-ethynylpyridin-2-yl)piperidin-4-yl)-3-(pyridin-3-yl)thiourea], the “% Inhibition (ABPP gel_JJH350 probe vs brain mem), at 2 uM” value is “B (at 2 uM) (% inhibition is greater than or equal to 50% and less than 75%)”.

Staying with this assay, now noted: read-out: IC50 (ABPP gel_JJH350 probe vs brain mem).
In the case of `Cc1ccc(Oc2ccnc(N3CCC(NC(=S)Nc4cccnc4)CC3)c2)cc1` [Example 75, 1-(Pyridin-3-yl)-3-(1-(4-(p-tolyloxy)pyridin-2-yl)piperidin-4-yl)thiourea], the IC50 (commonly the concentration that gives 50% inhibition) is 1 to 25 µM. As for `S=C(Nc1cccnc1)NC1CCN(c2cc(-c3ccccc3)ccn2)CC1` [Example 45, 1-(1-(4-Phenylpyridin-2-yl)piperidin-4-yl)-3-(pyridin-3-yl)thiourea], the 50% inhibitory concentration (IC50) is 1 to 25 µM.

As for `COc1ccnc(N2CCC(NC(=S)Nc3cccnc3)CC2)c1` [Example 44, 1-(1-(4-Methoxypyridin-2-yl)piperidin-4-yl)-3-(pyridin-3-yl)thiourea], the IC50 lay in the range of 1 to 25 µM. On the same count and under the same terms, to `Cc1cc(F)ccc1Oc1ccnc(N2CCC(NC(=S)Nc3cccnc3)CC2)c1Cl` [Example 69, 1-(1-(3-Chloro-4-(4-fluoro-2-methylphenoxy)pyridin-2-yl)piperidin-4-yl)-3-(pyridin-3-yl)thiourea] belongs 0.1 to 1 µM; to `Cc1cc(Oc2ccnc(N3CCC(NC(=S)Nc4cccnc4)CC3)c2Cl)ccc1F` [Example 70, 1-(1-(3-Chloro-4-(4-fluoro-3-methylphenoxy)pyridin-2-yl)piperidin-4-yl)-3-(pyridin-3-yl)thiourea], 0.1 to 1 µM; to `CC(=O)c1ccnc(N2CCC(NC(=S)Nc3cccnc3)CC2)c1` [Example 76, 1-(1-(4-Acetylpyridin-2-yl)piperidin-4-yl)-3-(pyridin-3-yl)thiourea], 1 to 25 µM.

On to `O=C(Nc1cccnc1)NC1CCN(c2nccc(Oc3ccc(OC(F)(F)F)cc3Cl)c2Cl)CC1` [Example 6, 1-(1-(3-Chloro-4-(2-chloro-4-(trifluoromethoxy)phenoxy)pyridin-2-yl)piperidin-4-yl)-3-(pyridin-3-yl)urea], for which the IC50 was 0.1 to 1 µM. Same read-out and setting: the value for `FC(F)(F)Oc1cc(Oc2ccnc(N3CCC(NC(=S)Nc4cccnc4)CC3)c2Cl)ccc1Cl` [Example 63, 1-(1-(3-Chloro-4-(4-chloro-3-(trifluoromethoxy)phenoxy)pyridin-2-yl)piperidin-4-yl)-3-(pyridin-3-yl)thiourea] was at most 0.1 µM.

These data come from patent US11897865B2, “ABHD12 inhibitors and methods of making and using same” (THE SCRIPPS RESEARCH INSTITUTE, priority 2018, dated 2024).
